Literature values as cited in patent publication US10087176B2, “3,5-dichloro,4-(3,4-(cyclo-)alkoxyphenyl)--2-carbonyloxy)ethyl)pyridine derivatives as PDE-4 inhibitors” (Chiesi Farmaceutici S.p.A., priority 2014, dated 2018).

Assays:
[1] = patients with severe disease, frequent exacerbations and mucus hypersecretion
[2] = system: lung inflammation and emphysema; conditions: smoking model of COPD in mice
[3] = system: neutrophils and CXCL8 in sputum; conditions: COPD patients, oral, given over 4 weeks

## O=C(Nc1c(Cl)cncc1Cl)c1ccc(OC(F)F)c(OCC2CC2)c1 [roflumilast]
[1]
  improvement of FEV 1: approximately 50 ml
  reduction of exacerbation: about 15%
[2]
  effect on lung inflammation and emphysema: inhibits lung inflammation and emphysema
[3]
  effect on CXCL8 concentrations in sputum: significantly reduces
  reduction of numbers of neutrophils in sputum: 36%
